# Paper doi:10.1101/2024.08.19.608619, “Discovery of potent SARS-CoV-2 nsp3 macrodomain inhibitors uncovers lack of translation to cellular antiviral response” (bioRxiv, 2024)
# Read-outs that look alike come from different tables or passages of the source.
# Tests used:
# Test in all cases: biochemical
# Design in all cases: In vitro kinase panel profiling, per cent remaining kinase activity at 10 uM
# [1] = molecular target: JAK2(h) (Homo sapiens, UniProt O60674); settings: atp_concentration=45, read-out: % of control remaining
# Sequence of JAK2(h) (O60674 whole entry): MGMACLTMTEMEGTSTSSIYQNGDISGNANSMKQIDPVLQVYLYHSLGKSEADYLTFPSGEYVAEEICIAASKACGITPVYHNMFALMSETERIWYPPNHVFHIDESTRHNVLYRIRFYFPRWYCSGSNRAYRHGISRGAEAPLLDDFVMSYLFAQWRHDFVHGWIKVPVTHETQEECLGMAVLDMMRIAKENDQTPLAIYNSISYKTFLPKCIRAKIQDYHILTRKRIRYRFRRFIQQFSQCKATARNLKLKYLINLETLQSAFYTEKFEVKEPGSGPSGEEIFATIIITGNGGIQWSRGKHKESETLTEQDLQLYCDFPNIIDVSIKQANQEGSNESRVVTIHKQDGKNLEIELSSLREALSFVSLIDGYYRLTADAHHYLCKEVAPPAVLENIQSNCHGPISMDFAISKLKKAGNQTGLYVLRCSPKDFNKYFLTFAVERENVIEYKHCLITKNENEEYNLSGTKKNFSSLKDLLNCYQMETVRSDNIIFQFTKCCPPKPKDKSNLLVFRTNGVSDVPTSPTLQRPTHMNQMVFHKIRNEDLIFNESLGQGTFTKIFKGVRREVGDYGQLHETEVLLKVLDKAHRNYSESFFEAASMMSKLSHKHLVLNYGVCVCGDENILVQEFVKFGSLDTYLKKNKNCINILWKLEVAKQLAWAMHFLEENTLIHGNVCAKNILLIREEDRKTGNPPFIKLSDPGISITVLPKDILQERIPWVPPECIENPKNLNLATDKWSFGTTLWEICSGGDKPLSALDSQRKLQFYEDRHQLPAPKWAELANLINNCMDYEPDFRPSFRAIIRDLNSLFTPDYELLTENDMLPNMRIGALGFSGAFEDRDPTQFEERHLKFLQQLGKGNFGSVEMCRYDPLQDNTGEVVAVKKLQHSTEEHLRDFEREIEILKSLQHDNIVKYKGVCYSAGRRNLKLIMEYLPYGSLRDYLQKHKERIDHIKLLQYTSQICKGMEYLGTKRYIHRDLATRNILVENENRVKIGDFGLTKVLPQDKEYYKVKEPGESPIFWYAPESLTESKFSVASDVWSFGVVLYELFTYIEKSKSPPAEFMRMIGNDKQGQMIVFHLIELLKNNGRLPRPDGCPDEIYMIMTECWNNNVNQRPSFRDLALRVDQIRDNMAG
# Source text: (§1) We derisk potential for off-target activity by profiling the compound in a CEREP panel, a standard secondary pharmacology assessment, as well as a kinase panel to derisk a potential hinge-binding motif in our leads, and a PARP panel to derisk activity against human […]. Reassuringly, the compounds are selective, with the only off-targets being moderate human CHRM2 and KOR receptors activity associated with ASAP-0011198.
# [2] = molecular target: T1, PKBα(h) (Homo sapiens, UniProt P31749); settings: atp_concentration=155, read-out: % of control remaining
# T1 construct: gene AKT1
# T1 sequence (P31749 whole entry): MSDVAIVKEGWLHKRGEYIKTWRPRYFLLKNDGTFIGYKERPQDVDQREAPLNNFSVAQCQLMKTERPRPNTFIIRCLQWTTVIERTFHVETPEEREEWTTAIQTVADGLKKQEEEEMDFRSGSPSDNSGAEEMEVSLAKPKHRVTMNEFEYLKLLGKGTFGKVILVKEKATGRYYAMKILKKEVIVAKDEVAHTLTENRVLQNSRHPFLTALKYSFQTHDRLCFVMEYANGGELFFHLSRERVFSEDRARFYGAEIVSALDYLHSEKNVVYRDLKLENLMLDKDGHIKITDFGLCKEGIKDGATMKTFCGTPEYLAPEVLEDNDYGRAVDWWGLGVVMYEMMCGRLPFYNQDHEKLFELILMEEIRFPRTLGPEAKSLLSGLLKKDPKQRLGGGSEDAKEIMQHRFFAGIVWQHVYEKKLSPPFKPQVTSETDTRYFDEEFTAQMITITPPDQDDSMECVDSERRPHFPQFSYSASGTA
# Source text: as §1
# [3] = molecular target: EGFR(h) (Homo sapiens, UniProt P00533); settings: atp_concentration=10, read-out: % of control remaining
# Sequence of EGFR(h) (P00533 whole entry): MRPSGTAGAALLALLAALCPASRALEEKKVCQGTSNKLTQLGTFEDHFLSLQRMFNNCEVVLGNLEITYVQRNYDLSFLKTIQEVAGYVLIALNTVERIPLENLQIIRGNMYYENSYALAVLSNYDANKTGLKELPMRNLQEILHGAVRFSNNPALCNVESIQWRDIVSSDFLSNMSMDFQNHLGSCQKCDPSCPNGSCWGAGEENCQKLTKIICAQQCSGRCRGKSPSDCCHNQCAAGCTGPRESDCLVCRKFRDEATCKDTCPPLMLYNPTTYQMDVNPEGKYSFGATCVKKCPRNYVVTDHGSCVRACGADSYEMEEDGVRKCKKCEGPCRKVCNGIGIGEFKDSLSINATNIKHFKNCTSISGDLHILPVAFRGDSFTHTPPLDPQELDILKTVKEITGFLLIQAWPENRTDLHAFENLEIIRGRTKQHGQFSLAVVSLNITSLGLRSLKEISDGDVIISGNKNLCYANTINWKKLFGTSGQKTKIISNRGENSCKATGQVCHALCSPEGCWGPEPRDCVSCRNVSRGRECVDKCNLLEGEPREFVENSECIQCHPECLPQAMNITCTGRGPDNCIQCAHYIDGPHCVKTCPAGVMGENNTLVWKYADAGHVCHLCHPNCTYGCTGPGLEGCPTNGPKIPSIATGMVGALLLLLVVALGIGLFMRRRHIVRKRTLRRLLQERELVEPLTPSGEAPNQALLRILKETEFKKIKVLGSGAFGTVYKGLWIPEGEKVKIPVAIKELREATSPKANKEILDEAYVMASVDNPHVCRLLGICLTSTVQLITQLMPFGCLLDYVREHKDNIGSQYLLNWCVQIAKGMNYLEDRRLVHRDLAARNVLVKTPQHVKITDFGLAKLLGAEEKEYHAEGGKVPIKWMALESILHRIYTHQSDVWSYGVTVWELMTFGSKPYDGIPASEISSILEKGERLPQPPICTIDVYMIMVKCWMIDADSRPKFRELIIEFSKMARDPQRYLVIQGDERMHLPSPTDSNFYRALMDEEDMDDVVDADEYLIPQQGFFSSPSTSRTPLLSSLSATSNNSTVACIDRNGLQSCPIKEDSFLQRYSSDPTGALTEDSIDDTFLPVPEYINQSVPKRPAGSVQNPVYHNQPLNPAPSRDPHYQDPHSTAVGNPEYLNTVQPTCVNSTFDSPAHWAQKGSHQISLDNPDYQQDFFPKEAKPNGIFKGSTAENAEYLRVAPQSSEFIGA
# Source text: as §1
# [4] = molecular target: T2, PI3 Kinase (p120γ)(h) (Homo sapiens, UniProt P48736); settings: atp_concentration=100, read-out: % of control remaining
# T2 construct: gene PIK3CG
# Source text: as §1
# [5] = molecular target: CDK7/cyclinH/MAT1(h) (Homo sapiens, UniProt P50613); settings: atp_concentration=90, read-out: % of control remaining
# Sequence of CDK7/cyclinH/MAT1(h) (P50613 whole entry): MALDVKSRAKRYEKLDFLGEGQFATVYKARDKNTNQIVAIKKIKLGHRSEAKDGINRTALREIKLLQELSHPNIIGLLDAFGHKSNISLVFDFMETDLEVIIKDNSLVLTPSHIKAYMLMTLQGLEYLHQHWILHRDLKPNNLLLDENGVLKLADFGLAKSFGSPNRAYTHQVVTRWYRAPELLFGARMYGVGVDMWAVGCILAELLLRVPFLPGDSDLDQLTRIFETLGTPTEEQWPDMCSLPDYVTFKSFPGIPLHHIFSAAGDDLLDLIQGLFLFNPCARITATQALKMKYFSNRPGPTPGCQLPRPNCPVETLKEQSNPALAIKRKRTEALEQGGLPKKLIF
# Sequence of CDK7/cyclinH/MAT1(h) (P51946 whole entry partner): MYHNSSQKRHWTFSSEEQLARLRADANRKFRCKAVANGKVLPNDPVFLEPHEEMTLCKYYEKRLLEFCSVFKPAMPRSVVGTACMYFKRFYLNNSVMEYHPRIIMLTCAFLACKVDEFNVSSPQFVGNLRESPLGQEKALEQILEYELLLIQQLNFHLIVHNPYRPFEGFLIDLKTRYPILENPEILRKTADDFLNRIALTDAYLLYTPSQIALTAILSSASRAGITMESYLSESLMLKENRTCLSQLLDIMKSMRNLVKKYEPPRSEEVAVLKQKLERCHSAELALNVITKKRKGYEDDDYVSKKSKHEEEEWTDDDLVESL
# Sequence of CDK7/cyclinH/MAT1(h) (P51948 whole entry partner): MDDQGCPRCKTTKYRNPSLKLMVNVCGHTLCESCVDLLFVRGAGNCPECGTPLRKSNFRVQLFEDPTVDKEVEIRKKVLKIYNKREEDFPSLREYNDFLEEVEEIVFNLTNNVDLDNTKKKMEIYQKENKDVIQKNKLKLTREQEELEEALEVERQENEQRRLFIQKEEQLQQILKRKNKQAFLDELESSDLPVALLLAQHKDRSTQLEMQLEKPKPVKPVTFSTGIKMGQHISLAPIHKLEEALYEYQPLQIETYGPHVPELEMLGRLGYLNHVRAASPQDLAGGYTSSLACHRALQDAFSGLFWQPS
# Source text: as §1
# [6] = molecular target: T3, MEK1(h) (Homo sapiens, UniProt Q02750); settings: atp_concentration=10, read-out: % of control remaining
# T3 construct: gene MAP2K1
# T3 sequence (Q02750 whole entry): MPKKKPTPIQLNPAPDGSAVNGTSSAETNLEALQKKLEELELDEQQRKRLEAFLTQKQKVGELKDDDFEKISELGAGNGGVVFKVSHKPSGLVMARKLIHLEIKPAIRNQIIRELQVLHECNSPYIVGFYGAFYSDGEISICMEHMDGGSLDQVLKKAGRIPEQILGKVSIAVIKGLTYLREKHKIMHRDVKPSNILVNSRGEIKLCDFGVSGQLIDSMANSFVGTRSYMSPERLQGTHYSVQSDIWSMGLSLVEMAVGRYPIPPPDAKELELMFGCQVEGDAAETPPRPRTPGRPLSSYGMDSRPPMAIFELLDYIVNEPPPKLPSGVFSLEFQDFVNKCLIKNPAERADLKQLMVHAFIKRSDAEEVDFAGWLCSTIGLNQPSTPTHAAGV
# Source text: as §1
# [7] = molecular target: T4, PKA(h) (Homo sapiens, UniProt P17612); settings: atp_concentration=10, read-out: % of control remaining
# T4 construct: gene PRKACA
# Source text: as §1
# [8] = molecular target: T5, IRAK4(h) (Homo sapiens, UniProt Q9NWZ3); settings: atp_concentration=200, read-out: % of control remaining
# T5 sequence (Q9NWZ3 1-460): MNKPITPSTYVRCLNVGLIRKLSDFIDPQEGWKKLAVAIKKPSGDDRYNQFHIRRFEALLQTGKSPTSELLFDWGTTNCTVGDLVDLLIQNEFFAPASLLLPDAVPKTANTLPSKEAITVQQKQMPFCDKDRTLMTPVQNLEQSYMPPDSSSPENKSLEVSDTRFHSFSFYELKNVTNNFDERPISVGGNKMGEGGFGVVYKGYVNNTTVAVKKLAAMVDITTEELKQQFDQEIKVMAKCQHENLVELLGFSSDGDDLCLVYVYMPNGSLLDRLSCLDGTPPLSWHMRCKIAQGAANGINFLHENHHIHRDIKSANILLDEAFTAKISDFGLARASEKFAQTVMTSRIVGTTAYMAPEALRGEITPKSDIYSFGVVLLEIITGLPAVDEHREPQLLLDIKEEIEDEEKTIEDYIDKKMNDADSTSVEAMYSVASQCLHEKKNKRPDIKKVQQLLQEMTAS
# Source text: as §1
# [9] = molecular target: EphA5(h) (Homo sapiens, UniProt P54756); settings: atp_concentration=10, read-out: % of control remaining
# Source text: as §1
# [10] = molecular target: T6, Pim-1(h) (Homo sapiens, UniProt P11309); settings: atp_concentration=90, read-out: % of control remaining
# T6 construct: gene PIM1
# T6 sequence (P11309 whole entry): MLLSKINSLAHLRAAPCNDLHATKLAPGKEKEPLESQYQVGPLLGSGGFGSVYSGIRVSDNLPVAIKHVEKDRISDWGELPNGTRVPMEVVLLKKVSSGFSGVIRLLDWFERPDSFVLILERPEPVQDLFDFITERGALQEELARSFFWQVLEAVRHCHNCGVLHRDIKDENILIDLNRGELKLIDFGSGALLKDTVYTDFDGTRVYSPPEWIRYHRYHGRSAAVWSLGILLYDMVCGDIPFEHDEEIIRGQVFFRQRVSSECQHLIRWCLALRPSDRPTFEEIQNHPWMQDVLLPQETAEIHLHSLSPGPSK
# Source text: as §1
# [11] = molecular target: T7, CK2α2(h) (Homo sapiens, UniProt P19784); settings: atp_concentration=10, read-out: % of control remaining
# T7 construct: gene CSNK2A2
# T7 sequence (P19784 whole entry): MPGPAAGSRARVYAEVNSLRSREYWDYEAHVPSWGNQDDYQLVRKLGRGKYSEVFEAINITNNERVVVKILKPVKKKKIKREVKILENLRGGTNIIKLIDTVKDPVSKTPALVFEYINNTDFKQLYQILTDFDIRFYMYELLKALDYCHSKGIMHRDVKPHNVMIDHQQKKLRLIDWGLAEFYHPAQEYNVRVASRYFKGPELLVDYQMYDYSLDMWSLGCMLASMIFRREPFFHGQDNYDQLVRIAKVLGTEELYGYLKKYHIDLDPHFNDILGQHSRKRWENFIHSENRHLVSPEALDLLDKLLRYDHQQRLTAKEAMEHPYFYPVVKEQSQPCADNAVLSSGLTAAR
# Source text: as §1
# [12] = molecular target: T8, TAK1(h) (Homo sapiens, UniProt O43318); settings: atp_concentration=45, read-out: % of control remaining
# T8 construct: gene MAP3K7
# T8 sequence (O43318 1-606): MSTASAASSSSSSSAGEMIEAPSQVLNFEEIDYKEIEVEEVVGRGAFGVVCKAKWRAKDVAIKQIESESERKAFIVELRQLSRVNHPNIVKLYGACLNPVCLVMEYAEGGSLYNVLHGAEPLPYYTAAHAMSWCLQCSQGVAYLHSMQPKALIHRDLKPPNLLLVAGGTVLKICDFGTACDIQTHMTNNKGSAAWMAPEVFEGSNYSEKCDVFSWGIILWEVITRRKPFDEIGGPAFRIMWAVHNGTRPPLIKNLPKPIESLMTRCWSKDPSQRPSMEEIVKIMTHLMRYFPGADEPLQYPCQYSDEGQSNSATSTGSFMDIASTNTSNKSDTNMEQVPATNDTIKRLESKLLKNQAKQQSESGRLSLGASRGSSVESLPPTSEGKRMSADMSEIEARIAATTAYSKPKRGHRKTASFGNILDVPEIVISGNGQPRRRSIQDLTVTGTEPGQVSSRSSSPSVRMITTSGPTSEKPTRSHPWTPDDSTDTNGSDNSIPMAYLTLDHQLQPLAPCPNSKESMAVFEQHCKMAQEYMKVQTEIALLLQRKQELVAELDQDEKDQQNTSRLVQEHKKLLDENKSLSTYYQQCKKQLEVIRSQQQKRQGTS
# Source text: as §1
smiles,measurement,setting,value
CC(C)C(Nc1ncnc2[nH]ccc12)c1ccc2c(c1)S(=O)(=O)CCC2 (stereo not drawn) [ASAP-0008327],remaining activity at 10 µM,[1]; batch_name=ASAP-0008327-001,110%
same,remaining activity at 10 µM,[2]; batch_name=ASAP-0008327-001,96%
same,remaining activity at 10 µM,[3]; batch_name=ASAP-0008327-001,102%
same,remaining activity at 10 µM,[4]; batch_name=ASAP-0008327-001,103%
same,remaining activity at 10 µM,[5]; batch_name=ASAP-0008327-001,85%
same,remaining activity at 10 µM,[6]; batch_name=ASAP-0008327-001,97%
same,remaining activity at 10 µM,[7]; batch_name=ASAP-0008327-001,98%
same,remaining activity at 10 µM,[8]; batch_name=ASAP-0008327-001,88%
same,remaining activity at 10 µM,[9]; batch_name=ASAP-0008327-001,110%
same,remaining activity at 10 µM,[10]; batch_name=ASAP-0008327-001,80%
same,remaining activity at 10 µM,[11]; batch_name=ASAP-0008327-001,90%
same,remaining activity at 10 µM,[12]; batch_name=ASAP-0008327-001,83%
COc1ccc([C@@H](Cc2nnn[nH]2)NC(=O)c2ncnc3[nH]ccc23)cc1 [ASAP-0008340],remaining activity at 10 µM,[1]; batch_name=ASAP-0008340-001,102%
same,remaining activity at 10 µM,[2]; batch_name=ASAP-0008340-001,94%
same,remaining activity at 10 µM,[3]; batch_name=ASAP-0008340-001,96%
same,remaining activity at 10 µM,[4]; batch_name=ASAP-0008340-001,89%
same,remaining activity at 10 µM,[5]; batch_name=ASAP-0008340-001,91%
same,remaining activity at 10 µM,[6]; batch_name=ASAP-0008340-001,92%
same,remaining activity at 10 µM,[7]; batch_name=ASAP-0008340-001,105%
same,remaining activity at 10 µM,[8]; batch_name=ASAP-0008340-001,91%
same,remaining activity at 10 µM,[9]; batch_name=ASAP-0008340-001,106%
same,remaining activity at 10 µM,[10]; batch_name=ASAP-0008340-001,91%
same,remaining activity at 10 µM,[11]; batch_name=ASAP-0008340-001,88%
same,remaining activity at 10 µM,[12]; batch_name=ASAP-0008340-001,88%
CC(C)[C@@H](Nc1ncnc2[nH]c(-c3cnn(C)c3C#N)cc12)c1ccc2c(n1)OCCO2 [ASAP-0008418],remaining activity at 10 µM,[1]; batch_name=ASAP-0008418-001,101%
same,remaining activity at 10 µM,[2]; batch_name=ASAP-0008418-001,95%
same,remaining activity at 10 µM,[3]; batch_name=ASAP-0008418-001,81%
same,remaining activity at 10 µM,[4]; batch_name=ASAP-0008418-001,63%
same,remaining activity at 10 µM,[5]; batch_name=ASAP-0008418-001,101%
same,remaining activity at 10 µM,[6]; batch_name=ASAP-0008418-001,99%
same,remaining activity at 10 µM,[7]; batch_name=ASAP-0008418-001,92%
same,remaining activity at 10 µM,[8]; batch_name=ASAP-0008418-001,100%
same,remaining activity at 10 µM,[9]; batch_name=ASAP-0008418-001,91%
same,remaining activity at 10 µM,[10]; batch_name=ASAP-0008418-001,79%
same,remaining activity at 10 µM,[11]; batch_name=ASAP-0008418-001,86%
same,remaining activity at 10 µM,[12]; batch_name=ASAP-0008418-001,103%
CC(C)[C@H](Nc1ncnc2[nH]ccc12)c1ccc2c(c1)S(=O)(=O)CCC2 [ASAP-0008674],remaining activity at 10 µM,[1]; batch_name=ASAP-0008674-002,99%
same,remaining activity at 10 µM,[2]; batch_name=ASAP-0008674-002,95%
same,remaining activity at 10 µM,[3]; batch_name=ASAP-0008674-002,95%
same,remaining activity at 10 µM,[4]; batch_name=ASAP-0008674-002,98%
same,remaining activity at 10 µM,[5]; batch_name=ASAP-0008674-002,89%
same,remaining activity at 10 µM,[6]; batch_name=ASAP-0008674-002,94%
same,remaining activity at 10 µM,[7]; batch_name=ASAP-0008674-002,89%
same,remaining activity at 10 µM,[8]; batch_name=ASAP-0008674-002,112%
same,remaining activity at 10 µM,[9]; batch_name=ASAP-0008674-002,102%
same,remaining activity at 10 µM,[10]; batch_name=ASAP-0008674-002,91%
same,remaining activity at 10 µM,[11]; batch_name=ASAP-0008674-002,87%
same,remaining activity at 10 µM,[12]; batch_name=ASAP-0008674-002,90%
CC(C)[C@H](Nc1ncnc2[nH]c(-c3cnn(C)c3C#N)cc12)c1ccc2c(n1)OCCO2 [ASAP-0010715],remaining activity at 10 µM,[1]; batch_name=ASAP-0010715-002,115%
same,remaining activity at 10 µM,[2]; batch_name=ASAP-0010715-002,90%
same,remaining activity at 10 µM,[3]; batch_name=ASAP-0010715-002,90%
same,remaining activity at 10 µM,[4]; batch_name=ASAP-0010715-002,80%
same,remaining activity at 10 µM,[5]; batch_name=ASAP-0010715-002,98%
same,remaining activity at 10 µM,[6]; batch_name=ASAP-0010715-002,97%
same,remaining activity at 10 µM,[7]; batch_name=ASAP-0010715-002,82%
same,remaining activity at 10 µM,[8]; batch_name=ASAP-0010715-002,106%
same,remaining activity at 10 µM,[9]; batch_name=ASAP-0010715-002,102%
same,remaining activity at 10 µM,[10]; batch_name=ASAP-0010715-002,98%
same,remaining activity at 10 µM,[11]; batch_name=ASAP-0010715-002,95%
same,remaining activity at 10 µM,[12]; batch_name=ASAP-0010715-002,94%
CC(C)[C@@H](Nc1ncnc2[nH]c(-c3cnn(C)c3C#N)cc12)c1ccc2c(n1)OCCO2 [ASAP-0010716],remaining activity at 10 µM,[1]; batch_name=ASAP-0010716-002,123%
same,remaining activity at 10 µM,[2]; batch_name=ASAP-0010716-002,94%
same,remaining activity at 10 µM,[3]; batch_name=ASAP-0010716-002,77%
same,remaining activity at 10 µM,[4]; batch_name=ASAP-0010716-002,78%
same,remaining activity at 10 µM,[5]; batch_name=ASAP-0010716-002,102%
same,remaining activity at 10 µM,[6]; batch_name=ASAP-0010716-002,103%
same,remaining activity at 10 µM,[7]; batch_name=ASAP-0010716-002,93%
same,remaining activity at 10 µM,[8]; batch_name=ASAP-0010716-002,99%
same,remaining activity at 10 µM,[9]; batch_name=ASAP-0010716-002,90%
same,remaining activity at 10 µM,[10]; batch_name=ASAP-0010716-002,99%
same,remaining activity at 10 µM,[11]; batch_name=ASAP-0010716-002,93%
same,remaining activity at 10 µM,[12]; batch_name=ASAP-0010716-002,100%
CNCc1cc(-c2cc3c(N[C@@H](c4ccc5c(c4)S(=O)(=O)CCC5)C(C)C)ncnc3[nH]2)co1 [ASAP-0011176],remaining activity at 10 µM,[1]; batch_name=ASAP-0011176-002,114%
same,remaining activity at 10 µM,[2]; batch_name=ASAP-0011176-002,96%
same,remaining activity at 10 µM,[3]; batch_name=ASAP-0011176-002,97%
same,remaining activity at 10 µM,[4]; batch_name=ASAP-0011176-002,96%
same,remaining activity at 10 µM,[5]; batch_name=ASAP-0011176-002,100%
same,remaining activity at 10 µM,[6]; batch_name=ASAP-0011176-002,97%
same,remaining activity at 10 µM,[7]; batch_name=ASAP-0011176-002,96%
same,remaining activity at 10 µM,[8]; batch_name=ASAP-0011176-002,100%
same,remaining activity at 10 µM,[9]; batch_name=ASAP-0011176-002,78%
same,remaining activity at 10 µM,[10]; batch_name=ASAP-0011176-002,93%
same,remaining activity at 10 µM,[11]; batch_name=ASAP-0011176-002,90%
same,remaining activity at 10 µM,[12]; batch_name=ASAP-0011176-002,90%
